The values that follow come from US8460867B2, “Methods of treating psychosis and schizophrenia based on polymorphisms in the CNTF gene” (Novartis AG, priority 2001, dated 2013).

One experiment relates to ob/ob mice. The conditions noted are these: systemic administration; cited from earlier work.
Another experiment deals with schizophrenic patients. Description: Clinical trial of Iloperidone in schizophrenic patients, pharmacogenetic analysis by CNTF 103 G>A genotype. It is filed as in vivo, human. An excerpt: In an effort to identify genetic factors that may associate with treatment response to Iloperidone, the relationship between a polymorphism in the CNTF (ciliary neurotrophic factor) gene (located on 11q12.2, the polymorphism being 103 G>A in GenBank sequence X55890 (Version 1), see PubMed: 9285965) and the clinical response to the antipsychotic Iloperidone in a clinical trial was investigated. This trial was a randomized, double-blind, placebo- and risperidone-controlled, multicenter study to evaluate the efficacy and safety of two non-overlapping dose ranges of lloperidone (12 or 16 mg/d and 20 or 24 mg/d and risperidone (6 or 8 mg/d) compared with placebo, given twice-daily (b.i.d) for 42 days to schizophrenic patients followed by a long-term treatment phase with lloperidone given once daily (q.d) at doses of 4, 8, 12, 16, or 24 mg/d for 46 weeks to patients with schizophrenia.
Pharmacogenetic analysis for candidate gene polymorphisms was conducted in Phase II of the clinical trial. It was determined whether the CNTF (ciliary neurotrophic factor) 103 G>A polymorphism (GenBank sequence X55890 (Version 1)) 103 G>A, (expressed protein alteration FS63 TER) was associated with any of the clinical parameters of efficacy studied in the course of the clinical trial and specifically changes in the BPRSA, Total PANNS, Positive PANNS, Negative PANNS and General PANNS scales.
A total of 207 unique blood samples were collected from the patients at the trial sites. The DNA was extracted by Covance (Geneva) using the PUREGENE™ DNA Isolation Kit (D-50K). The CNTF 103 G>A polymorphism (GenBank sequence X55890 (Version 1)) polymorphism was described by Takahashi, see, Takahashi et al. Nature Genet. 7: 79-84, 1994.
The probe sets for genotyping were designed and synthesized by Third Wave Technologies, Inc (Madison, Wis.). […]

Another experiment deals with db/db mice. The conditions noted are these: which lack a functional leptin receptor; cited from earlier work.
Experiment [1] has as its system mice with diet-induced obesity. The conditions noted are these: partially resistant to leptin; cited from earlier work.
For another experiment, the system named is pmn/pmn mice. The conditions noted are these: also when degenerative alterations were already present; cited from earlier work.

Regarding LEP: leptin (LEP) cytokine, the “induction of the tis-11 primary response gene in the arcuate nucleus” value with ob/ob mice is “rapid induction”.

On to `COc1cc(C(C)=O)ccc1OCCCN1CCC(c2noc3cc(F)ccc23)CC1` [Iloperidone], for which the “association of Total PANSS and BPRSA with the CNTF 103 G>A polymorphism” value with schizophrenic patients (12-16 mg dose (Group A), analysis of variance within treatments, p<0.001) is given as “significantly associated”. Further, in the experiment with schizophrenic patients (12-16 mg treatment group, GG type of the CNTF gene, p<0.001), the “response of the GG type versus the placebo” value is listed as “highly significant”. The “treatment response (BPRSA and Total PANNS scales), GG type versus non-GG type of the CNTF gene” value in the experiment with schizophrenic patients (12-16 mg treatment group, schizophrenic patients, 42 days b.i.d.) is “responded significantly better than the non-GG type”.

B1: CNTF: Ciliary Neurotrophic Factor, survival factor for neuronal cell types, member of the interleukin-6 cytokine family (protein, UniProt P26441 1-200, looked up)
Ciliary neurotrophic factor: MAFTEHSPLTPHRRDLCSRSIWLARKIRSDLTALTESYVKHQGLNKNINLDSADGMPVASTDQWSELTEAERLQENLQAYRTFHVLLARLLEDQQVHFTPTEGDFHQAIHTLLLQVAAFAYQIEELMILLEYKIPRNEADGMPINVGDGGLFEKKLWGLKVLQELSQWTVRSIHDLRFISSHQTGIPARGSHYIANNKKM
For the molecule B1, the obesity-related phenotypes result (with db/db mice; in experiment [1]) was “reduced obesity-related phenotypes” each time. For the same molecule, the “motor function and morphologic symptoms of neural degeneration” value in the experiment with pmn/pmn mice is “successfully improved motor function and reduced the morphologic symptoms of neural degeneration”. For the same molecule, the “induction of the tis-11 primary response gene in the arcuate nucleus” value in the experiment on ob/ob mice is “rapid induction”.
